Assay results: patent US20100203132A1, “Pharmaceutical Compositions Comprising NEP-Inhibitors, Inhibitors of the Endogenous Endothelin Producing System and AT1 Receptor Antagonists” (Solvay Pharmaceuticals GmbH, priority 2004, published 2010)
Where a name gives a salt, the structure may show the parent alone.

Experiments:
[1] = tested on: spontaneously hypertensive rat; test: Telemetric monitoring of blood pressure and heart rate in spontaneously hypertensive rats, compounds given via the drinking water; type: in vivo; settings: SHR; for DBP, change vs. baseline / HR, change vs. baseline / SBP, change vs. baseline: mean, n=5
Text: Male spontaneously hypertensive rats (=SHR, insulin resistant strain from Charles River; aged 6 months) were equipped with telemetry transmitters for continuous monitoring of blood pressure and heart rate (as described below). After 3 days of monitoring under baseline (untreated) conditions, animals were divided into two groups receiving an AT1-receptor antagonist (eprosartan mesylate, hereinafter referred to as experiment I; or candesartan cilexetil, hereinafter referred to as experiment II) or an AT1-receptor antagonist plus daglutril in combination. In experiment II, a third group of rats was included, receiving only daglutril. Compounds were administered via the drinking water, and daily drug intake was measured by weighing the water bottles thrice weekly. Intended daily doses in experiment I were 60 mg/kg/day of eprosartan mesylate plus, in the combination group, 100 mg/kg/day of daglutril. In experiment II, intended daily doses were 1 mg/kg of candesartan cilexetil, and 100 mg/kg of daglutril in the daglutril only and the combination group. Telemetry transmitters for continuous monitoring of blood pressure, heart rate and locomotor activity (TA11PA-C40, Data Sciences, USA) were implanted intraabdominally under inhalative halothane anesthesia. A midline abdominal incision was made, and the abdominal aorta was visualized by removal of retroperitoneal fat and connective tissue. A ligature was placed caudal of the renal arteries, the aorta was punctured with a 22G needle, and the catheter was advanced into the aorta. The entry point was sealed with tissue adhesive (Vetbond®, 3M, USA), the ligature was removed, and the abdominal incision was closed. Measurements of aortic pressure were taken every 5 minutes (=min) for 4 seconds (=s) each at a sampling rate of 500 Hz, and were corrected for the corresponding ambient pressure (ambient pressure monitor, C11 PR, Data Sciences, USA).
Concentrations of AT1-receptor antagonists and daglutril in the drinking water were adjusted once per week, in order to ensure the intended daily intake. In experiment I, the average daily water intake throughout the 33 days treatment period amounted to 51 and 56 ml/kg in the eprosartan and eprosartan plus daglutril group, respectively, resulting in the uptake of 62 mg/kg/day of eprosartan in both groups, and 104 mg/kg/day of daglutril in the combination group. In experiment II, the average daily water intake during the 25 days treatment period was 64 ml/kg (candesartan only), 62 ml/kg (daglutril only) and 62 ml/kg (candesartan plus daglutril), resulting in daily doses of 0.9 mg/kg of candesartan in both, the candesartan and combination group, and 101 mg/kg and 98 mg/kg of daglutril in the daglutril and combination group, respectively.
The blood pressure, heart rate and activity values, sampled in 5 min intervals by the Dataquest system, were used for calculation of individual 24 hours (=h)-means. These 24 h means were exported to Excel, and group mean values of systolic blood pressure (=SBP), diastolic blood pressure (=DBP), heart rate (=HR), and locomotor activity (=ACT) were calculated for the different treatment groups. For the statistical analysis, a baseline value (pre) was calculated from 3 days prior to compound application, and effects of AT1-receptor antagonist, daglutril and their combination were calculated in relation to this baseline value (average value during the treatment period minus baseline value). The statistical comparison was done by using analysis of variance, followed by two-tailed Student's t-test for comparison of AT1 receptor antagonist and combination groups, both at an error level of P<0.05.

[2] = tested on: human subjects with congestive heart failure; test: Single dose study of oral daglutril during 12-hour right heart catheterization, subgroup analysis by concomitant losartan potassium; type: in vivo; settings: human CHF subjects, single oral dose of daglutril (200, 400 or 800 mg groups pooled), with or without concomitant losartan potassium; value is mean change (SE)
Description: A randomized, placebo-controlled, parallel group, multi-center, single dose study of oral daglutril (vide supra) during 12-hour right heart catheterization in human subjects with congestive heart failure (=CHF) was performed. Each subject received one dose of daglutril or placebo. The study consisted of three visits (or study days when in-subjects were included). Ambulatory subjects were in hospital for two nights and one day. […]
The primary efficacy parameter was the maximum decrease from baseline over 6 hours for SVR and was compared between treatment groups using analysis of covariance, with the baseline value as covariate and center and NYHA classification as factors. […] In addition, the existence of a dose-response relationship for daglutril was evaluated by investigating linear, quadratic and cubic contrasts. The secondary efficacy parameter was the maximum change from baseline for PCWP and was analyzed in the same way as the primary variable. The maximum decrease from baseline over 12 hours, the change from for each individual time point and the adjusted area under the curve (=AUC) over 6 and 12 hours were analyzed for SVR and PCWP, using similar statistical methodology as for the main parameter of interest. All other tertiary efficacy parameters were analyzed using the same statistical methodology as for the primary efficacy parameter. […]

[3] = experiment II, 25 days via drinking water, candesartan 0.9 mg/kg/day, daglutril 101 mg/kg (alone) or 98 mg/kg (combination)
[4] = experiment I, 33 days via drinking water, eprosartan 62 mg/kg/day, daglutril 104 mg/kg/day in combination

Row | SMILES | DBP, change vs. baseline [1, 3] [mmHg] | HR, change vs. baseline [1, 3] [min⁻¹] | SBP, change vs. baseline [1, 3] [mmHg] | DBP, change vs. baseline [1, 4] [mmHg] | HR, change vs. baseline [1, 4] [min⁻¹] | SBP, change vs. baseline [1, 4] [mmHg] | Placebo corrected mean change of MPAP (average 0.5-6 hrs) [2] | reduction in blood pressure (in words) ([1]; daglutril given alone)
1 | CCOc1nc2cccc(C(=O)OC(C)OC(=O)OC3CCCCC3)c2n1Cc1ccc(-c2ccccc2-c2nn[nH]n2)cc1 (centres unmarked) [Candesartan, candesartan cilexetil] | −19.7 | -3.0 | −22.8 | – | – | – | – | –
2 | CCCCc1ncc(/C=C(\Cc2cccs2)C(=O)O)n1Cc1ccc(C(=O)O)cc1 [Eprosartan, eprosartan mesylate] | – | – | – | −5.6 | -7.6 | −5.9 | – | –
3 | CCOC(=O)C(CCc1ccccc1)CC1(C(=O)NC2CCc3ccccc3N(CC(=O)O)C2=O)CCCC1 (centres unmarked) [daglutril, 2-[1-(1-carboxymethyl-2-oxo-2,3,4,5-tetrahydro-1H-benzo[b]azepin-3-ylcarbamoyl)-cyclopentylmethyl]-4-phenyl-butyric acid ethyl ester] | 0.8 | -2.0 | −1.5 | – | – | – | −3.35 (1.06) mmHg | did not lead to a reduction in blood pressure
